The values below come from US11583517B2, “Dual antagonist of PGD2/DPr2 and Thromboxane A2/TPr receptors and use for treatment of maladaptive immune response or thrombotic diathesis” (priority 2020, dated 2023).

“Also recorded” adds a separate entry of the source.

Assay [1] relates to TAO. Kind of assay: male smokers with TAO, ramatroban versus aspirin. It counts as in vivo, human. The note with it: 12 months. The text has this:
All patients can be prescribed standard therapies including pentoxifylline, iloprost, calcium antagonists, statins and low molecular weight heparin or oral anticoagulants. […] There is increase in blood flow in the dorsalis pedis and posterior tibial pulses arteries by doppler examination with a decrease in need for surgical procedures and amputations. Improvement was seen of active vascular lesions and pain symptoms.

The subject of another assay is viral infection. As to the kind of experiment: outbreak of viral infection in animal shelter facility. It counts as in vivo, dogs and cats. As to conditions: older animals. The text has this:
In a large animal shelter facility, there was an outbreak of viral infection largely affecting dogs and cats leading to deaths of many older animals, while the young animals survived.

The test system of another assay is silicosis mice. As to conditions: silica-induced mouse model; cited from earlier work.
In assay [2] the test system is Alzheimer's disease. Kind of assay: AD patients randomized to four treatment groups. It counts as in vivo, human. As to conditions: long-term follow-up, compared with placebo.
The next assay deals with pneumoconiosis. Kind of assay: non-smoking stone crushers, chemoprophylaxis versus placebo. The note with it: 5 years.
For assay [3], the system named is dye nephrotoxicity and acute kidney injury. As to the kind of experiment: ramatroban versus placebo prior to cardiac catheterization. It counts as in vivo, human. As to conditions: chronic kidney disease or heart failure, compared to placebo. The text has this:
Patients with chronic kidney disease or heart failure are randomized to receive ramatroban versus placebo prior to cardiac catheterization.

The test system of assay [4] is TAO. As to the kind of experiment: TAO patient and randomized control trial versus standard of care. The class given is in vivo, human.
The subject of assay [5] is asthma and allergic rhinitis. The note with it: added to conventional therapeutic regimen.
Another assay has as its system sickle cell disease. Kind of assay: SCD patient given COVID-19 vaccine with ramatroban. It counts as in vivo, human. The method, then: A patient with sickle cell disease (SCD) has a past history of multiple vaso-occlusive crisis (VOC), acute chest syndrome (ACS) and ischemic cerebrovascular accidents. Patient is administered the AstraZeneca vaccine as prophylaxis against COVID-19. […] The same regimen is repeated at the time of the second dose of the vaccine. […] Other similar patients with SCD are found to experience high incidence of thrombotic events after COVID-19 vaccines.

Another assay has as its system Parkinson's disease. Kind of assay: patients with Parkinson's disease. The class given is in vivo, human.
In a further assay the test system is Kawasaki like disease. As to conditions: in vivo.
The test system of another assay is acute viral pneumonia. The class given is in vivo, human.
The test system of assay [6] is primary pulmonary hypertension. Kind of assay: patient with primary pulmonary hypertension. As to conditions: person. It counts as in vivo, human.
Source text: Patient is diagnosed to have primary pulmonary hypertension.
Assay [7] has as its system Alzheimer's disease. As to conditions: in vivo; cited from earlier work.
Where [8] appears, read: retrospective analysis of COVID-19 patients.
[9] abbreviates: retrospective analysis, ramatroban continued after discharge.
Setting [10] is: Patient 6b, two months after start.

As for `O=C(O)CCn1c2c(c3ccccc31)C[C@H](NS(=O)(=O)c1ccc(F)cc1)CC2` [Ramatroban, 3-[(3R)-3-[(4-fluorophenyl)sulfonylamino]-1,2,3,4-tetrahydrocarbazol-9-yl]propanoic acid], in the assay on TAO [1], the “active vascular lesions and pain symptoms” value is “Improvement”; the “blood flow in the dorsalis pedis and posterior tibial arteries by doppler” value was “increase”; the “development of ulcers in the fingertips and toes, acrocyanosis, necrosis and loss of substance” value was “significantly less”; the “need for surgical procedures and amputations” value is “decrease”. In the assay with viral infection, the infection severity result was “marked decline” and the mortality result was “marked decrease”. In addition, in the assay on silicosis mice, the “NLRP3 inflammasome, IL-1beta and caspase-1” value was “inhibiting”; the “fibrosis and resulting cardiopulmonary dysfunction” value is “inhibiting; also recorded: significantly reducing”; the “infiltration with macrophages, lymphocytes and neutrophils” value is recorded as “reducing; also recorded: markedly inhibited”; the lung compliance entry is “restoring”. For the same compound, in the assay on silicosis mice, the silica-induced pulmonary inflammation result is recorded as “alleviated”. The cognition and memory result in the assay with Alzheimer's disease [2] is listed as “improvement”. In addition, in the assay on pneumoconiosis, the lung compliance result is recorded as “higher” and the lung fibrosis result is listed as “significantly reduced”. Further, the “dye nephrotoxicity and acute kidney injury” value in [3] is on record as “significantly less”. Besides, in the assay on TAO [4] (a) person), the “blood flow to the lower extremities” value was “improvement”. Further, the gangrenous toes result with TAO [4] (a), chronic smoker) is “partial resolution and healing”. For the same compound, the ischemic lesions entry in the assay with TAO [4] (b) randomized control trial, versus control group) is reported as “resolution”. The blood flow result in the assay on TAO [4] (b) randomized control trial, with standard of care versus standard of care) is given as “improvement”. Besides, in [5], the improvement in symptoms is 25%. Moreover, the “pulmonary function tests and DLCO” value in the assay with COVID-19 (after 2 months) is given as “normal”. The “chest X-ray” value in the assay with COVID-19 (after 2 months, ramatroban continued as outpatient) was “complete resolution of the infiltrates with no evidence of any pulmonary fibrosis or scarring”. Further, in the assay with COVID-19 (person, 75 mg twice a day), the “time to discharge home” value came out at 5 days. For the same compound, in the assay with COVID-19 (setting [8]), the lymphocyte counts entry was “rapid improvement”, the “need for mechanical ventilation” value is reported as “less”, the recovery time entry is “shorter” and the thrombocytopenia entry is recorded as “rapid recovery”. In addition, in the assay with COVID-19 (setting [9]), the “fibrosis and scarring in the lungs” value is reported as “reduced”; the lung function entry is reported as “better”. Moreover, the “antibody response to vaccine” value with sickle cell disease (AstraZeneca vaccine, ramatroban 75 mg twice a day orally for one month) was “robust”. Moreover, the “VOC, ACS, myocardial infarction or stroke” value with sickle cell disease (after vaccine, ramatroban 75 mg twice a day orally) was “no recrudescence or recurrence”. In the assay on Parkinson's disease (Patient 6a), the falls result is recorded as “stops falling” and the hallucinations entry is reported as “no longer experiences hallucinations”. Also, the cognitive function result with Parkinson's disease (Patient 6a, at 4 months) is given as “significant improvement”. In addition, the sense of balance result with Parkinson's disease (Patient 6a, first week of treatment) is on record as “subjective improvement”. Also, in the assay with Parkinson's disease (setting [10]), the “cognitive ability and sociability” value is listed as “marked improvements”; the hallucinations result is reported as “reduction”; the physical functioning entry is “significant improvement”. Besides, in the assay with Kawasaki like disease, the laboratory parameters entry was “marked improved” and the “prophylaxis against Kawasaki like disease” value is given as “remains healthy”. In addition, in the assay on acute viral pneumonia (long term follow up), the lung compliance result is reported as “higher” and the lung fibrosis result is on record as “significantly reduced”. The “resolution of pneumonia during the hospitalization” value with acute viral pneumonia (versus placebo, with conventional therapy) is “significantly more rapid”.

Take `COc1ccccc1Oc1c(NS(=O)(=O)c2ccc(C(C)(C)C)cc2)nc(-c2ncccn2)nc1OCCO` [bosentan]: the clinical response entry in [6] is “no response”.

As to `CCCc1nn(C)c2c(=O)[nH]c(-c3cc(S(=O)(=O)N4CCN(C)CC4)ccc3OCC)nc12` [sildenafil], the clinical response result in assay [6] was “no response”.

Take “sodium oligomannate [sodium oligomannate (GV-971)]”: the cognition and memory result in the assay on Alzheimer's disease [2] is listed as “improvement”. Moreover, the “cognitive impairment in Alzheimer's disease” value in the assay with Alzheimer's disease [7] is “improves”.
